The source of these data is patent US9687488B2, “Compositions and methods for increasing neurotrophic peptides” (Saint Louis College of Pharmacy, priority 2012, dated 2017).

The test system of data set [1] is survival motor neuron (SMN) protein in cortical neurons. Briefly: Immunoblotting of SMN protein in cortical neuron cultures. To be noted: immunoblot against tubulin (FIG. 6). In kind it is cell-based, murine. How it is done:
(§1) Murein E14-E15 cortices were dissected and removed to Hanks Balanced Salt Solution (HBSS) The tissue was dissociated with 0.05% trypsin in HBSS for 10 min at 37° C., and then filtered through a 70 µm cell strainer. Cells were plated on poly-D-lysine (PDL)-coated plates at −3.2×10^5 cells/cm^2 in CEMEM (10% fetal bovine serum, 10% horse serum, 2 mM L-glutamine, and 1% penicillin/streptomycin) for 45 min in a 37° C. humidified tri-gas incubator (5% CO2 and 5% 02). The medium was changed to Neurobasal medium (Invitrogen, Carlsbad, Calif.) with a B27 supplement (Gibco) containing antioxidants (NB plus AO) to specifically enhance neuronal growth. After 3 days the media were half changed with NB plus AO. All treatments were done at day 5 with complete media change containing vehicle, SAHA (suberoyl anilide hydroxamic acid; Vorinostat), and test compounds at final concentrations ranging from 125 μM to 1 nM for 24 hours.
Culture medium was collected and cells were lysed in lysis buffer containing 50 mM Tris-HCl, pH 7.5, 150 mM sodium chloride, 1% Nonidet P-40, 0.5% sodium deoxycholate, 1 mM sodium orthovanadate, 5 mM sodium fluoride, and a protease inhibitor cocktail. Sample concentrations were determined to ensure equal loading, placed in Laemmli sample buffer containing B-mercaptoethanol, and denatured at 100° C. for 5 min. […]

Data set [2] has as its system primary cortical neurons. Briefly: MTS cell viability assay. In kind it is cell-based, murine. The note with it: 24 hours. How it is done:
as §1, with “hours. The MTS non-radioactive cell viability assay employed [3-(4,5-dimethylthiazol-2-yl)-5-(3-carboxymethoxyphenyl)-2-(4-sulfophenyl)-2H-tetrazolium, inner salt with phenazine methosulfate added as an electron coupling reagent, MTS is bioreduced by cells into a formazan product that is soluble in tissue culture medium and can be measured at 490 nm. MTS was performed at 24 hours per manufacturer recommendations (Promega, G5421).” for “hours.”

For data set [3], the system named is progranulin levels in cortical neuron cultures. Briefly: Dot blot / immunoblotting of progranulin in primary cortical neuron cultures. To be noted: primary cortical neurons, 24 hours; for accumulation of progranulin: dot blot (FIG. 5), repeat triplicate experiments. In kind it is cell-based, Murine. Here is the method: as §1
Culture medium was collected and cells were lysed in lysis buffer containing 50 mM Tris-HCl, pH 7.5, 150 mM sodium chloride, 1% Nonidet P-40, 0.5% sodium deoxycholate, 1 mM sodium orthovanadate, 5 mM sodium fluoride, and a protease inhibitor cocktail. Sample concentrations were determined to ensure equal loading, placed in Laemmli sample buffer containing B-mercaptoethanol, and denatured at 100° C. for 5 min. Proteins were separated on a 4% stacking and 12% resolving SDS-PAGE Tris-glycine gel, transferred to polyvinylidene difluoride membrane (Millipore), and blocked in 5% instant milk or 5% bovine serum albumin in Tris-buffered saline with 0.1% Tween for 1 hour. For immunoblotting, primary antibodies were incubated overnight at 4° C. with 1/1000 tubulin (Developmental Studies Hybridoma), and 1/1000 Progranulin (ProteinTech Group). 15 μL of media was loaded from each sample. Ponceau red staining on the membrane before immunological probing was used to show equal loading to look for secreted progranulin and survival of motor neurons protein.

SMILES strings stand for the structures.

Consider `CCN(CC(=O)Nc1ccccc1C)S(=O)(=O)c1ccc(OC)cc1` [Compound 4, 2-(N-ethyl-4-methoxybenzenesulfonamido)-N-(2-methylphenyl) acetamide], for which the “cellular concentration of survival motor neuron (SMN) protein” value in data set [1] is given as “dramatically increase”.

Consider `COc1ccc(Cl)cc1NC(=O)CS(=O)(=O)c1ccccc1` [Compound 3, 2-(benzenesulfonyl)-N-(5-chloro-2-methoxyphenyl)acetamide], for which the “toxicity to the neurons” value in data set [2] is “apparently nontoxic”. Besides, in data set [3], the “effective dose for progranulin accumulation” value is listed as “effective in extremely low doses” and the accumulation of progranulin result is on record as “elicited accumulation of progranulin”.

In the case of `COc1ccc(-c2c(C)nn3c(=O)cc(Cc4ccccc4)[nH]c23)cc1OC` [Compound 1, 5-benzyl-3-(3,4-dimethoxyphenyl)-2-methyl-4H,7H-pyrazolo[1,5,a]pyrimidin-7-one], in data set [2], the “toxicity to the neurons” value is listed as “apparently nontoxic”. Also, in data set [3], the “effective dose for progranulin accumulation” value is recorded as “effective in extremely low doses” and the accumulation of progranulin result was “elicited accumulation of progranulin”.

With `CC(=O)N(c1ccc(Oc2ccccc2)cc1)C1C=CS(=O)(=O)C1` (centres unmarked) [Compound 2, N-(1,1-dioxo-2,3-dihydro-1-[…]^6-thiophene-3-yl)-N-(4-phenoxyphenyl)acetamide], in data set [1], the “cellular concentration of survival motor neuron (SMN) protein” value is listed as “dramatically increase”.
